The text below walks through data of patent publication US10526316B2, “Quinoxaline and pyridopyrazine derivatives as PI3Kβ inhibitors” (Janssen Pharmaceutica NV, priority 2015, dated 2020).

Like-named read-outs stand apart in the source and are kept apart here.

For experiment [1], the target named is T1, kinase enzymes (Homo sapiens, UniProt P42336).
T1 construct: purchased DiscoveRx Corporation, San Diego (contract service, KINOMEscan)
The experiment in a line: Enzyme binding assay (KINOMEscan, DiscoveRx), further kinases of Table A. The following applies: PIK3Cα_h. The method, then: (§1) Enzyme Binding Assays (KINOMEscan®)
(§2) Kinase enzyme binding affinities of compounds disclosed herein were determined using the KINOMEscan technology performed by DiscoveRx Corporation, San Diego, Calif., USA (www.kinomescan.com).

The target in experiment [2] is T2, kinase enzymes (Homo sapiens, UniProt P42345).
T2 construct: purchased DiscoveRx Corporation, San Diego (contract service, KINOMEscan)
Described as above. Conditions: MTOR_h. The method, then: as §1, §2

Experiment [3] relates to Akt phosphorylated at Thr308 in PC-3 cells. The experiment in a line: Cellular assay: phosphorylation of Akt at Thr308 in PC-3 cells (MSD ELISA). The class given is cell-based. The following applies: PC-3 cells, 60 min compound incubation, MSD ELISA, read-out: IC50 pAkt_Thr308. The method, then:
(§3) Cellular activity of PI3KP inhibitors was determined by quantifying the phosphorylation of Akt in PC-3 cells. Akt phosphorylated at Ser473 and Thr308 were measured using an enzyme-linked immunosorbent assay (ELISA; Meso Scale Discovery (MSD), Gaithersburg. Md.) and specific primary antibodies from MSD.
(§4) On day 2, compound or DMSO (0.3%) was added and cells were further incubated for 60 min at 37° C. 5% CO2 in a total volume of 100 μl of medium.
(§5) The phosphoprotein assay was executed according to vendor instructions in the Phospho-Akt (Ser473) Assay Whole Cell Lysate Kit (MSD # K15100D-3) and the Phospho-Akt (Thr308) Assay Whole Cell Lysate Kit (MSD # K151DYD-3) using the lysis, blocking and wash buffer provided.
(§6) Briefly, at the end of the cell treatment period, media were removed by aspiration and adherent cells were lysed in 50 μl ice-cold lysis buffer. MSD plates are supplied pre-coated with capture antibodies for Phospho-Akt (Ser473 and Thr308). After blocking, lysates from tissue culture plates were added and plates were washed. Then, a solution containing the detection antibody (anti-total Akt conjugated with an electrochemiluminescent compound-MSD Sulfo-tag label) was added. The signals were detected using an MSD SECTOR Imager 6000 and are proportional to the phospho-Akt titres.
(§7) Data were processed. […] From these concentration-response curves, the IC50 values were calculated. Five concentrations were used for curve fitting.
In general terms: An ELISA detects its analyte on a solid surface through an enzyme-linked reagent.

For the next experiment, the target named is T3, PI3Kβ (Homo sapiens, UniProt P42338).
T3 construct: purchased DiscoveRx Corporation, San Diego (contract service, KINOMEscan)
T3 sequence (P42338 whole entry): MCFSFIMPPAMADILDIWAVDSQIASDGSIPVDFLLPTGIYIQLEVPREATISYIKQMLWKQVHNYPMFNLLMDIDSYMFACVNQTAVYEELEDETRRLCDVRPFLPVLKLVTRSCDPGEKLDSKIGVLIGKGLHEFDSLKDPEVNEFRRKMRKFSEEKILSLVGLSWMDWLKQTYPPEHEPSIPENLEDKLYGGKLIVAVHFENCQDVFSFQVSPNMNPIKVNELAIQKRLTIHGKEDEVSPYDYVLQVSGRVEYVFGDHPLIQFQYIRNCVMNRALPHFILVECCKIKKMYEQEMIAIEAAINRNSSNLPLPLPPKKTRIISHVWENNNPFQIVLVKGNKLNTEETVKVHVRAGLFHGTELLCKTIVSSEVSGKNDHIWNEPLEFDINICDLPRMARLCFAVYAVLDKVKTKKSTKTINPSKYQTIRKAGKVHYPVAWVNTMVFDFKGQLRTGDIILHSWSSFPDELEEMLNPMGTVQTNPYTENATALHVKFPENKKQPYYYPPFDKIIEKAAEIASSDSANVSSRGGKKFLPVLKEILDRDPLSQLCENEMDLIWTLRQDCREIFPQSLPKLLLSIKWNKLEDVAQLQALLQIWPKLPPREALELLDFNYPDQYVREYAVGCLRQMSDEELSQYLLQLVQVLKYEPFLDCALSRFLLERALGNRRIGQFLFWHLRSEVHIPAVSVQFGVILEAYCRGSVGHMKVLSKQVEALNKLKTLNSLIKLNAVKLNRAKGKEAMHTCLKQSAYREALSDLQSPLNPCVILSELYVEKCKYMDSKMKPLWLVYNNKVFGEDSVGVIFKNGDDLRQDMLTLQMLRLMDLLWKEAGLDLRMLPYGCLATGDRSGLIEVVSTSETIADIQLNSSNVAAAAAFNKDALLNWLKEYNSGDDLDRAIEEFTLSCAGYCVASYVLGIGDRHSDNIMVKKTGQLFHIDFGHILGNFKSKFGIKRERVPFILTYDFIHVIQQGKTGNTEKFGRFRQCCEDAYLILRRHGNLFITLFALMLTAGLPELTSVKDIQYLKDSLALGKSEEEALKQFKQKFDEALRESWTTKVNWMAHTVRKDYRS
The experiment in a line: Enzyme binding assay (KINOMEscan, DiscoveRx). The following applies: PIK3Cβ_h, read-out: Kd PIK3Cβ_h. The method, then:
as §1
Kinase enzyme binding affinities of compounds disclosed herein were determined using the KINOMEscan technology performed by DiscoveRx Corporation, San Diego, Calif., USA (www.kinomescan.com). Table A reports the obtained Kd values (nM), with the Kd being the inhibitor binding constant: […]

Experiment [4] concerns Akt phosphorylated at Ser473 in PC-3 cells. The experiment in a line: Cellular assay: phosphorylation of Akt at Ser473 in PC-3 cells (MSD ELISA). Conditions: PC-3 cells, 60 min compound incubation, MSD ELISA, read-out: IC50 pAkt_S473. The class given is cell-based. The method, then:
as §3, §4, §5, §6, §7

Experiment [5] has as its target T4, kinase enzymes (Homo sapiens, UniProt P48736).
T4 construct: purchased DiscoveRx Corporation, San Diego (contract service, KINOMEscan)
The experiment in a line: Enzyme binding assay (KINOMEscan, DiscoveRx), further kinases of Table A. The following applies: PIK3Cγ_h. The method, then:
as §1, §2

The target of the next experiment is T5, PI3Kδ (Homo sapiens, UniProt O00329).
T5 construct: purchased DiscoveRx Corporation, San Diego (contract service, KINOMEscan)
T5 sequence (O00329 1-1044): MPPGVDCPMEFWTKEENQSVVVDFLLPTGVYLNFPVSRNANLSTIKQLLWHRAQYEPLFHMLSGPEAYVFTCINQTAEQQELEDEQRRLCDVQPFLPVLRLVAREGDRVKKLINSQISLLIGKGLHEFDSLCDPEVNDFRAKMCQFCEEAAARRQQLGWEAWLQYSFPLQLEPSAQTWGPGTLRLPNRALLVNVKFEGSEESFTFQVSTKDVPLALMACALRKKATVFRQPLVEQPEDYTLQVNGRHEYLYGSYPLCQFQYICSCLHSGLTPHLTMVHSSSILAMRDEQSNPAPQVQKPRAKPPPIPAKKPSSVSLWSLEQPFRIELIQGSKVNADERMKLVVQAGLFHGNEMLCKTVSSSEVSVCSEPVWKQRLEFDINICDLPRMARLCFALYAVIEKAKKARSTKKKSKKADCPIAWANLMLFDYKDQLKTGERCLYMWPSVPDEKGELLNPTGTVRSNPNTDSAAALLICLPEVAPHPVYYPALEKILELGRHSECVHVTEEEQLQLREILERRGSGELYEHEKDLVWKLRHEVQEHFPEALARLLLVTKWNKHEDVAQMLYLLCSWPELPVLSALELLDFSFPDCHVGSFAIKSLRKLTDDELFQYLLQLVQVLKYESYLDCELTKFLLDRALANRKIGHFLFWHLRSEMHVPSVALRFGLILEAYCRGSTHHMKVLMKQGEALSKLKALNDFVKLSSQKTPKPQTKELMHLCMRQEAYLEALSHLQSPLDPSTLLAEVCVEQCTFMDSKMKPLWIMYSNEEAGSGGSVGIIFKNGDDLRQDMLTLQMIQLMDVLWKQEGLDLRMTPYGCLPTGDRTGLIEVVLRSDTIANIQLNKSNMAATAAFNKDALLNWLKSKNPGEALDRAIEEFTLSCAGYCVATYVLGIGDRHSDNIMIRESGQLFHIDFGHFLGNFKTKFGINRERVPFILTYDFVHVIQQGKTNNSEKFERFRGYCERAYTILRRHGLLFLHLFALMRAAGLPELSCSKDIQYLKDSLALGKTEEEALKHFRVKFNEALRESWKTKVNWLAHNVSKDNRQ
The experiment in a line: Enzyme binding assay (KINOMEscan, DiscoveRx). Conditions: PIK3Cδ_h. The method, then: as §1, §2

T4 sequence (P48736 whole entry): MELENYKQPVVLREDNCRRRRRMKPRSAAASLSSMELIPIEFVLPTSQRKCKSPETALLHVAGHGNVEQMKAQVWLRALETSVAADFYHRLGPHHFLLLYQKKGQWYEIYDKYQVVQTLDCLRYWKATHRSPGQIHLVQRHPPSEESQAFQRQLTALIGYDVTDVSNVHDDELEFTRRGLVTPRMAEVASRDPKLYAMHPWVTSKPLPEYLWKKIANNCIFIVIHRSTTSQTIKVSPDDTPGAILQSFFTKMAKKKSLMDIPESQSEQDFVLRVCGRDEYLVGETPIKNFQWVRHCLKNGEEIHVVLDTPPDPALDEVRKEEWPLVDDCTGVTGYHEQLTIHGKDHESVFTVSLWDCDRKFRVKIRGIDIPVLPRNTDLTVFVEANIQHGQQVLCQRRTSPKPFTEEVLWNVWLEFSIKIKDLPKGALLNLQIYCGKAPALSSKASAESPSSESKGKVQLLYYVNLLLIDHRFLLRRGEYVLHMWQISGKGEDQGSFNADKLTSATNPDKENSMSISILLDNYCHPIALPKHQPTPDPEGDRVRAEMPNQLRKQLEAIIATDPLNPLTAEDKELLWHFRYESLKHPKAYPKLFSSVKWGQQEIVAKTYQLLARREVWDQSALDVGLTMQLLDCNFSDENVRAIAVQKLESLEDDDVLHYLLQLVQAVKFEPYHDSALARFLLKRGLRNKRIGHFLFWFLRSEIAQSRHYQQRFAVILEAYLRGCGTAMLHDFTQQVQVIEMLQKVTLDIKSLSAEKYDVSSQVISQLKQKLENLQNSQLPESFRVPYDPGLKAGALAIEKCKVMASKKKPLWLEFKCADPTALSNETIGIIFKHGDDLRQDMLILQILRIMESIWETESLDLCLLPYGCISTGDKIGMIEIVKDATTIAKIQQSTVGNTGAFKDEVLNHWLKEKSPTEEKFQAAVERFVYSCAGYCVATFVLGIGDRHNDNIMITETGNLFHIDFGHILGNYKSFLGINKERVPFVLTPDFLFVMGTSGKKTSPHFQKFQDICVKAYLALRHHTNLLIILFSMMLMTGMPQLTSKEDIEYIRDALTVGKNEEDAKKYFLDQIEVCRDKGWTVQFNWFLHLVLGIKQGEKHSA
T1 sequence (P42336 whole entry): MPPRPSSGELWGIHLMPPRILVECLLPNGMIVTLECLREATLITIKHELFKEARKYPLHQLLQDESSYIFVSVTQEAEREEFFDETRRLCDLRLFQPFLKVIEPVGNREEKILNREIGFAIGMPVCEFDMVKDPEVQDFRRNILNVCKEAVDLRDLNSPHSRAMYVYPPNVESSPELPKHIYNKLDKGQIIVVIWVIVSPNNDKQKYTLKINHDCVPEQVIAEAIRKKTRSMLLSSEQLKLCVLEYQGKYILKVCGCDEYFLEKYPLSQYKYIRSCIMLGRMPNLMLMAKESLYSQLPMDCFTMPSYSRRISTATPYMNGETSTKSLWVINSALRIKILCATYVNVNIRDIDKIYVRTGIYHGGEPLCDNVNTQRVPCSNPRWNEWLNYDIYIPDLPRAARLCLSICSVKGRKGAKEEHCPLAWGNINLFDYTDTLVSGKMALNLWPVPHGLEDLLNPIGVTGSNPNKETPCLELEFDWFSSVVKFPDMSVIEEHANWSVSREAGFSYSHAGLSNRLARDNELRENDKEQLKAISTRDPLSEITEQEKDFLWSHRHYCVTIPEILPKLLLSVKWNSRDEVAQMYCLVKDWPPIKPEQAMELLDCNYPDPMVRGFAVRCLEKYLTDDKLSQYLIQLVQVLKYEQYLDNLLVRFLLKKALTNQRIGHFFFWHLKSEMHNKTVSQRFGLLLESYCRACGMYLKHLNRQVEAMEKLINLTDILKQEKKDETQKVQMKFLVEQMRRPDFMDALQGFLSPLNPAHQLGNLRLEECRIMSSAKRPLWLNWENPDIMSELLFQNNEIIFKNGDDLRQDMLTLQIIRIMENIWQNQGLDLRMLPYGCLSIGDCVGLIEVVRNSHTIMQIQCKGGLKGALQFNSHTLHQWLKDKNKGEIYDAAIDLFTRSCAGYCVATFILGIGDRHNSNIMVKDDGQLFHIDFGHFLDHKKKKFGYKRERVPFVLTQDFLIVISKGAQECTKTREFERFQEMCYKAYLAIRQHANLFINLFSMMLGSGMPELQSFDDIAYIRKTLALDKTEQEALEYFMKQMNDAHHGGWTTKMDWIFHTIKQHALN

For `Cc1ccc(F)cc1CNc1cc(C(=O)NCCO)cc2ncc(N3CCOCC3)nc12` [Compound 343], the values for the Kd at kinase enzymes [1], at kinase enzymes [2] and on PI3Kβ were 2190 nM, over 10000 nM and 22 nM, respectively. The IC50 (in general, the midpoint of a concentration-inhibition curve) in experiment [3] (Homo sapiens, PC-3, 1 h) worked out at 178 nM; in experiment [4] (Homo sapiens, PC-3, 1 h) it was 389 nM.

Consider `CN[C@H]1CCN(C(=O)c2cc(C(C)Nc3ccc(F)c(F)c3)c3nc(N4CCOCC4)cnc3c2)C1` (single isomer, unassigned) [Compound 365b], for which the equilibrium dissociation constant (Kd) (in general, the equilibrium constant for the complex coming apart) on kinase enzymes [1] is 15500 nM; at kinase enzymes [2] it was over 30200 nM; at kinase enzymes [5], 22900 nM; at PI3Kδ it was 4170 nM; at PI3Kβ, 251 nM.

In the case of `CN(Cc1cc(F)cc(F)c1)c1cc(C(=O)N2CCNC(C(F)(F)F)C2)cc2ncc(N3CCOCC3)nc12` (single isomer, unassigned) [Compound 319a], the Kd is 9120 nM on kinase enzymes [1]; over 30200 nM at kinase enzymes [2]; over 30200 nM at kinase enzymes [5]; 2820 nM at PI3Kδ; 200 nM on PI3Kβ.

Turning to `CC(C)NCCNC(=O)c1cc(NCc2cc(F)cc(F)c2)c2nc(N3CCOCC3)cnc2c1` [Compound 342], the Kd turned out to be 3800 nM on kinase enzymes [1]; 16600 nM at kinase enzymes [2]; 26900 nM at kinase enzymes [5]; 1000 nM at PI3Kδ; 9 nM at PI3Kβ.

As to `CC(Nc1cc(F)cc(F)c1)c1cc(C(=O)N(C)CCN(C)C)cc2ncc(N3CCOCC3)nc12` (single isomer, unassigned) [Compound 182], the Kd on kinase enzymes [1] was 126 nM; on kinase enzymes [2], over 30200 nM; on kinase enzymes [5], 912 nM; at PI3Kδ, 32 nM; on PI3Kβ, 0.3 nM. In addition, in experiment [4], the concentration for half-maximal inhibition (IC50) turned out to be 1 nM.

Take `COC(=O)c1cc(C(C)Nc2cc(F)cc(Cl)c2)c2nc(N3CCOCC3)cnc2c1` (centres unmarked) [Compound 264]: the results for the Kd at kinase enzymes [2] and at PI3Kβ were over 30200 nM and 52 nM, respectively. Besides, in experiment [4], the IC50 is over 513 nM.

For `CC(Nc1cc(F)c(F)c(F)c1)c1cc(C(=O)N2CCCN(C(C)C)CC2)cc2ncc(N3CCOCC3)nc12` (single isomer, unassigned) [Compound 388a], the Kd on kinase enzymes [1] is over 30200 nM; at kinase enzymes [2], over 30200 nM; on kinase enzymes [5] it was over 30200 nM; at PI3Kδ it was over 30200 nM; at PI3Kβ it was 933 nM.

For `O=C(NCCO)c1cc(N2CCC2c2ccc(F)cc2)c2nc(N3CCOCC3)cnc2c1` (single isomer, unassigned) [Compound 391a], the equilibrium dissociation constant (Kd) at kinase enzymes [1] was over 30200 nM; at kinase enzymes [2], 17000 nM; on kinase enzymes [5] it was over 30200 nM; on PI3Kδ it was over 30200 nM; at PI3Kβ, 10700 nM.

For `CN[C@H]1CCN(C(=O)c2cc(C(C)Nc3cc(F)c(F)c(F)c3)c3nc(N4CCOCC4)cnc3c2)C1` (some centres unmarked) [Compound 297], the dissociation constant (Kd) on kinase enzymes [1] is 1860 nM; at kinase enzymes [2], over 30200 nM; on kinase enzymes [5], 1950 nM; at PI3Kδ, 110 nM; at PI3Kβ it was 0.3 nM. For the same compound, the IC50 in experiment [3] (Homo sapiens, PC-3, 1 h) came to 20 nM.

For the compound `CC(C)NCCNC(=O)c1cc(C(C)Oc2ccc(F)c(F)c2)c2nc(N3CCOCC3)cnc2c1` (single isomer, unassigned) [Compound 286b], the Kd was 6030 nM on kinase enzymes [1]; over 30200 nM on kinase enzymes [2]; 16200 nM on kinase enzymes [5]; 355 nM at PI3Kδ; 2 nM at PI3Kβ. The IC50 in experiment [3] came out at 204 nM.

`CC(Oc1ccc(F)c(F)c1)c1cc(C(=O)N2CC[C@H](N(C)C)C2)cc2ncc(N3CCOCC3)nc12` (single isomer, unassigned) [Compound 363b]: the Kd at kinase enzymes [1] was 31600 nM; at kinase enzymes [2] it was 27500 nM; on kinase enzymes [5], over 30200 nM; on PI3Kδ it was 17000 nM; on PI3Kβ it was 1290 nM.

With `C[C@@H](Nc1cccc(F)c1)c1cc(C(=O)NCCO)cc2ncc(N3CCOCC3)nc12` [Compound 117], the concentration for half-maximal inhibition (IC50) in experiment [3] (Homo sapiens, PC-3, 1 h) is 44 nM; in experiment [4] (Homo sapiens, PC-3, 1 h) it was 49 nM.

On to `O=C(NCCO)c1cc(N2CCC2c2ccc(F)cc2)c2nc(N3CCOCC3)cnc2c1` (single isomer, unassigned) [Compound 391b], for which the dissociation constant Kd at kinase enzymes [1] is over 30200 nM; on kinase enzymes [2], over 30200 nM; on kinase enzymes [5], over 30200 nM; on PI3Kδ it was over 30200 nM; at PI3Kβ, 19500 nM.

With `CC(Nc1ccc(F)c(F)c1)c1cc(C(=O)N2CC[C@@H](O)C2)cc2ncc(N3CCOCC3)nc12` (single isomer, unassigned) [Compound 300b], the Kd was 24000 nM on kinase enzymes [1]; over 30200 nM at kinase enzymes [2]; over 30200 nM on kinase enzymes [5]; 23400 nM on PI3Kδ; 537 nM on PI3Kβ.

In the case of `CNCCNC(=O)c1cc(C(C)Oc2ccc(Cl)c(F)c2)c2nc(N3CCOCC3)cnc2c1` (centres unmarked) [Compound 380a], the Kd on kinase enzymes [1] was determined as 9120 nM; at kinase enzymes [2], 19100 nM; at PI3Kδ it was 7240 nM; at PI3Kβ, 1050 nM.

With `CNCCN(C)C(=O)c1cc(C(C)Oc2cc(F)c(F)c(F)c2)c2nc(N3CCOCC3)cnc2c1` (single isomer, unassigned) [Compound 379b], the Kd is over 30200 nM at kinase enzymes [1]; over 30200 nM on kinase enzymes [2]; over 30200 nM on kinase enzymes [5]; over 30200 nM on PI3Kδ; 1260 nM at PI3Kβ.

Regarding `CC(C)NCCN(C)C(=O)c1cc(N(C)Cc2cc(F)cc(F)c2)c2nc(N3CCOCC3)cnc2c1` [Compound 390], the Kd at kinase enzymes [1] is 16600 nM; at kinase enzymes [2] it was over 30200 nM; at kinase enzymes [5], 22400 nM; at PI3Kδ, 3240 nM; on PI3Kβ, 78 nM.

For `CN(Cc1cc(F)cc(F)c1)c1cc(C(=O)O)cc2ncc(N3CCOCC3)nc12` [Compound 291], the Kd on kinase enzymes [1] was found to be 550 nM; at kinase enzymes [2] it was 10200 nM; on kinase enzymes [5], 513 nM; on PI3Kδ, 2820 nM; on PI3Kβ it was 407 nM.

For `O=C(c1cc(NCc2cc(F)cc(F)c2)c2nc(N3CCOCC3)cnc2c1)N1CCCNCC1` [Compound 351], the Kd at kinase enzymes [1] is 2510 nM; at kinase enzymes [2], over 30200 nM; at kinase enzymes [5], 2140 nM; on PI3Kδ, 1700 nM; at PI3Kβ, 21 nM.

As to `CC(C)NCCNC(=O)c1cc(C(C)Oc2cccc(F)c2)c2nc(N3CCOCC3)cnc2c1` (single isomer, unassigned) [Compound 314b], the equilibrium dissociation constant (Kd) is 8910 nM at kinase enzymes [1]; over 30200 nM on kinase enzymes [2]; 16600 nM on kinase enzymes [5]; 1000 nM on PI3Kδ; 2 nM on PI3Kβ. For the same compound, the half-maximal inhibitory concentration (IC50) in experiment [4] worked out at 191 nM.
